Read-outs that look alike come from different tables or passages of the source.
Molecular target: T1, human polymorphonuclear leukocyte elastase (Homo sapiens, UniProt P08246)
T1 construct: Crude extract of human polymorphonuclear leukocytes (PMN) containing elastase activity; endogenous in cells; host or cells: human polymorphonuclear leukocytes (crude extract)
T1 sequence (P08246 30-247 limits assumed): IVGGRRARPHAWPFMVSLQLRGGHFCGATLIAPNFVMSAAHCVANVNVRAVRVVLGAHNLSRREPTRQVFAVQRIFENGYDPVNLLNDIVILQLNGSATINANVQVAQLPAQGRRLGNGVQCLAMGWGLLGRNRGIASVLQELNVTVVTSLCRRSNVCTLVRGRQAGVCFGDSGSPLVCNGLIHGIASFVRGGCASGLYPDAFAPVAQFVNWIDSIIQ
Experiment: Inhibition of human polymorphonuclear leukocyte (granulocyte) elastase via hydrolysis of Boc-AAPAN or Boc-AAPVN
Format: biochemical
Settings: for Ki / ID50, effective dosage for 50% inhibition of the enzyme activity two minutes after time zero: Table I; for Ki: read-out: Ki, concentration of the inhibitor giving 50% of the control enzyme activity; for kobs/I, second order rate constant of inactivation of the enzyme: Table IV; for ID50, effective dosage for 50% inhibition of the enzyme activity two minutes after time zero: 2 min after time zero, crude PMN extract, pH 7.5

[1] = pH 7.5, read-out: kobs/I, second order rate constant of inactivation of the enzyme
[2] = pH 7.5, Table I, read-out: kobs/I, second order rate constant of inactivation of the enzyme
[3] = pH 7.5, Table II, (per mole per second), read-out: kobs/I, second order rate constant of inactivation of the enzyme
[4] = pH 7.5, Table VI, (per mole per second), read-out: kobs/I, second order rate constant of inactivation of the enzyme
[5] = pH 7.5, Table III, (per mole per second), read-out: kobs/I, second order rate constant of inactivation of the enzyme

Procedure: Enzyme Assays for the Inhibition of Human Polymorphonuclear Leukocyte Elastase Via Hydrolysis of N-t-Boc-alanyl-alanyl-prolylalanine-p-nitroanilide (Boc-AAPAN) or N-t-Boc-alanyl-prolylvaline-p-nitroanilide (Boc-AAPVN) Reagent:
0.05M TES (N-tris[hydroxymethyl]methyl-2-amino-ethanesulfonic acid) Buffer, pH 7.5.
0.2 mM Boc-AAPAN or Boc-AAPVN.
To prepare substrate, the solid was first dissolved in 10.0 ml DMSO. Buffer at pH 7.5 was then added to a final volume of 100 ml.
Crude extract of human polymorphonuclear leukocytes (PMN) containing elastase activity.
Inhibitors (azetidinones) to be tested dissolved in DMSO just before use.
To 1.0 ml of 0.2 mM Boc-AAPAN in a cuvette, 0.01-0.1 ml of DMSO with or without inhibitor was added. After mixing, a measurement was taken at 410 mμ to detect any spontaneous hydrolysis due to presence of test compound. 0.05 Milliliters of PMN extract was then added and the ΔOD/min at 410 mμ was measured and recorded. Beckman model 35 spectrophotometer was used.
Results were also expressed as Ki, the micromolar concentration of the inhibitor (μM) giving 50% of the control enzyme activity; or as ^k obs/I which is the second order rate constant in per mole per second for inactivation of the enzyme.
The elastase activity in the crude PMN extract may vary from one preparation to another. A control of each new batch is run, and the volume added in the assay procedure is adjusted according to activity.

`CC[C@H]1C(=O)N(S(=O)(=O)c2ccc(C)cc2)[C@H]1C(=O)N(C)CC(=O)O` (relative stereo) was tested, and the Ki was 22000 nM and the kinact/KI [1] was 165 M⁻¹ s⁻¹.
Compound `CC[C@H]1C(=O)N(S(=O)(=O)c2ccc(C)cc2)[C@H]1C(=O)OCc1ccc(C(=O)O)cc1` (relative stereo) has a Ki of 4200 nM and a kinact/KI [1] of 299 M⁻¹ s⁻¹.
In the case of `CC[C@H]1C(=O)N(S(=O)(=O)c2ccc(C)cc2)[C@H]1C(=O)OCC(=O)O` (relative stereo), the kinact/KI [2] is reported as 1550 M⁻¹ s⁻¹.
For `CCOC(=O)N1C(=O)[C@H](CC)[C@@H]1OCC(=O)O` (relative stereo), the kinact/KI [2] was 796 M⁻¹ s⁻¹.
Compound `CCOC(=O)N1C(=O)[C@H](CC)[C@H]1OCC(=O)NCC(=O)O` (relative stereo) has a kinact/KI [2] of 1000 M⁻¹ s⁻¹.
`CCOC(=O)N1C(=O)[C@H](CC)[C@H]1OCC(=O)O` (relative stereo) showed a kinact/KI [2] of 512 M⁻¹ s⁻¹.
Work on `CCOC(=O)N1C(=O)[C@H](CC)[C@H]1OC(C)C(=O)O` (relative stereo) yielded a kinact/KI [2] of 346 M⁻¹ s⁻¹.
`CCC[C@H]1C(=O)N(C(=O)OCC)[C@@H]1OCC(=O)O` (relative stereo) was tested, and the kinact/KI [2] was 1500 M⁻¹ s⁻¹.
`CCOC(=O)[C@@H]1[C@@H](CC)C(=O)N1S(=O)(=O)c1ccc([N+](=O)[O-])cc1` (relative stereo) [4-Carboethoxy-3-ethyl-1-(p-nitrobenzenesulfonyl)-azetidin-2-one] was tested, and the kinact/KI [1] was 39300 M⁻¹ s⁻¹.
For `CCOC(=O)[C@H]1[C@@H](CC)C(=O)N1S(=O)(=O)c1ccc([N+](=O)[O-])cc1` (relative stereo) [4-Carboethoxy-3-ethyl-1-(p-nitrobenzenesulfonyl)-azetidin-2-one], the kinact/KI [1] was 3920 M⁻¹ s⁻¹.
In the case of `CC[C@H]1C(=O)N(C(=O)c2ccccc2)[C@H]1OC(C)=O` (relative stereo) [Table I: H; C2 H5 (cis); OCOCH3; COPh], the Ki is reported as 140 nM.
`CC[C@H]1C(=O)N(C(C)=O)[C@H]1OC(=O)c1ccccc1` (relative stereo) [Table I: H; C2 H5 (cis); OCOPh; COCH3] showed a Ki of 210 nM and a kinact/KI [1] of 28500 M⁻¹ s⁻¹.
Work on `CCO[C@@H]1[C@@H](CC)C(=O)N1C(C)=O` (relative stereo) [Table I: H; C2 H5 (trans); OC2 H5; COCH3] yielded a Ki of 11900 nM and a kinact/KI [1] of 1670 M⁻¹ s⁻¹.
For `CC[C@H]1C(=O)N(C(C)=O)[C@@H]1OC(=O)c1ccccc1` (relative stereo) [Table I: H; C2 H5 (trans); OCOPh; COCH3], the Ki was 190 nM and the kinact/KI [1] was 81000 M⁻¹ s⁻¹.
Work on `CC[C@H]1C(=O)N(C(C)=O)[C@@H]1Oc1ccccc1` (relative stereo) [Table I: H; C2 H5 (trans); OPh; COCH3] yielded a Ki of 4300 nM and a kinact/KI [1] of 5270 M⁻¹ s⁻¹.
In the case of `CCCC1(CCC)C(=O)N(C(=O)NC(C)c2ccccc2)C1Oc1ccc(C(=O)O)cc1` (single isomer, unassigned) [Table IV: C3 H7; C3 H7; O-(4-COOHPh); drawing 47 (higher Rf isomer)], the “kobs/I, second order rate constant of inactivation of the enzyme” value ((per mole per second)) is reported as 4324 M⁻¹ s⁻¹.
In the case of `CCCC1(CCC)C(=O)N(C(=O)NC(C)c2ccccc2)C1Oc1ccc(C(=O)O)cc1` (single isomer, unassigned) [Table IV: C3 H7; C3 H7; O-(4-COOHPh); drawing 47 (lower Rf isomer)], the “kobs/I, second order rate constant of inactivation of the enzyme” value ((per mole per second)) is reported as 1446 M⁻¹ s⁻¹.
Compound `CC[C@@]1(C)C(=O)N(C(=O)NCc2ccccc2)[C@H]1Oc1ccc(C(=O)O)cc1` [(3R,4S)-1-(benzylaminocarbonyl)-3-ethyl-3-methyl-4-(4-carboxy)phenoxyazetidin-2-one] has a kinact/KI [3] of 2000 M⁻¹ s⁻¹.
Compound `C=CC[C@@H](NC(=O)N1C(=O)C(CC)(CC)[C@@H]1Oc1ccc(CC(=O)O)cc1)c1ccc2c(c1)OCO2` [(4S)-3,3-diethyl-1-[(R)-α-allyl-(3,4-methylenedioxy)-benzylaminocarbonyl]-4-[(4-carboxymethyl)phenoxy]azetidin-2-one] has a kinact/KI [4] of 605000 M⁻¹ s⁻¹.
In the case of `CCC[C@@H](NC(=O)N1C(=O)C(CC)(CC)[C@@H]1Oc1ccc(CC(=O)O)cc1)c1ccc2c(c1)OCO2` [(4S)-3,3-diethyl-1-[(R)-α-n-propyl-(3,4-methylenedioxy)-benzylaminocarbonyl]-4[(4-carboxymethyl)-phenoxy]azetidin-2-one], the kinact/KI [4] is reported as 867000 M⁻¹ s⁻¹.
Work on `CCC1C(=O)N(C(=O)c2ccccc2)C1C(C)=O` (stereo not drawn) [Table I: H; C2 H5 (trans); COCH3; COPh] yielded a Ki of 340 nM and a kinact/KI [1] of 76600 M⁻¹ s⁻¹.
In the case of `CCC1C(=O)N(C(C)=O)C1OC(C)=O` (stereo not shown) [Table I: H; C2 H5; OCOCH3; COCH3], the “ID50, effective dosage for 50% inhibition of the enzyme activity two minutes after time zero” value is reported as 100 µg/mL, the Ki is reported as 360 nM and the kinact/KI [1] is reported as 15100 M⁻¹ s⁻¹.
With `CCC1C(=O)NC1OC(C)=O` (stereo not shown) [Table I: H; C2 H5; OCOCH3; H] the “ID50, effective dosage for 50% inhibition of the enzyme activity two minutes after time zero” value was 15000 µg/mL.
For `COC1C(=O)N(C(C)=O)C1C(=O)OCc1ccccc1` (stereo not shown) [Table I: H; CH3 O; COOCH2 C6 H5; COCH3], the “ID50, effective dosage for 50% inhibition of the enzyme activity two minutes after time zero” value was 2000 µg/mL.
In the case of `CC(=O)OC1CC(=O)N1C(C)=O` (stereo not shown) [Table I: H; H; OCOCH3; COCH3], the “ID50, effective dosage for 50% inhibition of the enzyme activity two minutes after time zero” value is reported as 3000 µg/mL.
`CC(=O)N1C(=O)CC1[S+](C)[O-]` (stereo not shown) [Table I: H; H; SOCH3; COCH3, 1-acetyl-4-methylsulfinylazetidine-2-one] was tested, and the “ID50, effective dosage for 50% inhibition of the enzyme activity two minutes after time zero” value was 10000 µg/mL.
In the case of `CCCC1C(=O)N(C(C)=O)C1OC(C)=O` (stereo not shown) [Table I: H; n-propyl; OCOCH3; COCH3, 1-acetyl-4-acetoxy-3-n-propylazetidin-2-one], the “ID50, effective dosage for 50% inhibition of the enzyme activity two minutes after time zero” value is reported as 10 µg/mL.
Compound `CCC1(CC)C(=O)N(C(=O)NCc2ccccc2)C1Oc1ccc(CC(N)C(=O)O)cc1` (stereo not shown) [Table II: C2 H5; C2 H5; drawing 36; CH2 Ph] has a kinact/KI [3] of 2540 M⁻¹ s⁻¹.
`CCC1(CC)C(=O)N(C(=O)NCc2ccccc2)C1Oc1ccc(C(=O)N2CCC[C@H]2C(=O)O)cc1` (stereo partly shown) [Table II: C2 H5; C2 H5; drawing 37; CH2 Ph] was tested, and the kinact/KI [3] was 2000 M⁻¹ s⁻¹.
For `CCC1(CC)C(=O)N(C(=O)NCc2ccccc2)C1Oc1ccc(C(=O)NS(=O)(=O)c2ccc(Cl)cc2)cc1` (stereo not shown) [Table II: C2 H5; C2 H5; drawing 38; CH2 Ph], the kinact/KI [3] was 6300 M⁻¹ s⁻¹.
With `CCC1(CC)C(=O)N(C(=O)NCc2ccccc2)C1Oc1ccc([C@H](NC(C)=O)C(=O)O)cc1` (stereo partly shown) [Table II: C2 H5; C2 H5; drawing 39; CH2 Ph] the kinact/KI [3] was 2420 M⁻¹ s⁻¹.
For `CCC1C(=O)N(C(=O)NCc2ccccc2)C1Oc1ccc(C(=O)O)cc1` (stereo not shown) [Table II: C2 H5; H; O-(4-COOHPh); CH2 Ph], the kinact/KI [3] was 4000 M⁻¹ s⁻¹.
`CCC1C(=O)N(C(=O)NCc2ccccc2)C1c1ccc(C(=O)O)cc1` (stereo not shown) [Table II: C2 H5; H; Ph-4-COOH; CH2 Ph] showed a kinact/KI [3] of 900 M⁻¹ s⁻¹.
`CCCC1C(=O)N(C(=O)NCc2ccccc2)C1Oc1ccc(C(=O)O)cc1` (stereo not shown) [Table II: C3 H7; H; O-(4-COOHPh); CH2 Ph] was tested, and the kinact/KI [3] was 5000 M⁻¹ s⁻¹.
`COC1C(=O)N(C(=O)NCc2ccc3ccccc3c2)C1c1ccc(C(=O)O)cc1` (stereo not shown) [Table II: H; OMe; Ph-4-COOH; CH2-2-Naph] was tested, and the kinact/KI [3] was 1340 M⁻¹ s⁻¹.
For `CCC1(CC)C(=O)N(C(=O)NCc2ccccc2)C1n1cnc2ccccc21` (stereo not shown) [Table III: 1-benzimidazolyl; CH2 Ph], the kinact/KI [5] was 69 M⁻¹ s⁻¹.
For `CCC1(CC)C(=O)N(C(=O)NCc2ccc(-c3ccccc3)cc2)C1n1ccnc1` (stereo not shown) [Table III: 1-imidazole; CH2 Ph-4-Ph], the kinact/KI [5] was 461 M⁻¹ s⁻¹.
Compound `CCC1(CC)C(=O)N(C(=O)NCc2ccccc2)C1n1cnnn1` (stereo not shown) [Table III: 1-tetrazolyl; CH2 Ph] has a kinact/KI [5] of 948 M⁻¹ s⁻¹.
For `CCC1(CC)C(=O)N(C(=O)NCc2ccc(-c3ccccc3)cc2)C1n1cncn1` (stereo not shown) [Table III: 1-triazolyl; CH2 Ph-4-Ph], the kinact/KI [5] was 2140 M⁻¹ s⁻¹.
Compound `CCC1(CC)C(=O)N(C(=O)NCc2ccccc2)C1n1c(=O)cc[nH]c1=O` (stereo not shown) [Table III: C00042; CH2 Ph] has a kinact/KI [5] of 351 M⁻¹ s⁻¹.
`CCC1(CC)C(=O)N(C(=O)NCc2ccccc2)C1NC(=O)OC` (stereo not shown) [Table III: NHCOOMe; CH2 Ph] gave a kinact/KI [5] of 496 M⁻¹ s⁻¹.
Compound `CCC1(CC)C(=O)N(C(=O)NCc2ccccc2)C1Oc1ccccc1CCCN(C)C` (stereo not shown) [Table III: O-(2-(CH2)3 NMe2Ph); CH2 Ph] has a kinact/KI [5] of 629 M⁻¹ s⁻¹.
`CCC1(CC)C(=O)N(C(=O)NCc2ccccc2)C1Oc1ccc(C(NC(C)=O)C(=O)O)cc1` (stereo not shown) [Table III: O-(4-CH(COOH)NHAcPh); CH2 Ph] was tested, and the kinact/KI [5] was 1680 M⁻¹ s⁻¹.
In the case of `CCC1(CC)C(=O)N(C(=O)NCc2ccccc2O)C1Oc1ccc(C(=O)O)cc1` (stereo not shown) [Table III: O-(4-COOHPh); CH2 Ph(2-OH)], the kinact/KI [5] is reported as 1460 M⁻¹ s⁻¹.
For `CCC1(CC)C(=O)N(C(=O)NCc2cccc(C)c2)C1Oc1ccc(C(=O)O)cc1` (stereo not shown) [Table III: O-(4-COOHPh); CH2 Ph(3-CH3)], the kinact/KI [5] was 6930 M⁻¹ s⁻¹.
With `CCC1(CC)C(=O)N(C(=O)NCc2ccc(C(C)=O)cc2)C1Oc1ccc(C(=O)O)cc1` (stereo not shown) [Table III: O-(4-COOHPh); CH2 Ph(4-COMe)] the kinact/KI [5] was 5920 M⁻¹ s⁻¹.
`CCC1(CC)C(=O)N(C(=O)NCc2ccc(C(C)C)cc2)C1Oc1ccc(C(=O)O)cc1` (stereo not shown) [Table III: O-(4-COOHPh); CH2 Ph(4-i-Pr)] showed a kinact/KI [5] of 18800 M⁻¹ s⁻¹.
In the case of `CCC1(CC)C(=O)N(C(=O)NCc2ccc(C(C)(C)C)cc2)C1Oc1ccc(C(=O)O)cc1` (stereo not shown) [Table III: O-(4-COOHPh); CH2 Ph(4-tBu)], the kinact/KI [5] is reported as 21800 M⁻¹ s⁻¹.
In the case of `CCC1(CC)C(=O)N(C(=O)NCC2CCC3CCCCC3C2)C1Oc1ccc(C(=O)O)cc1` (stereo not shown) [Table III: O-(4-COOHPh); drawing 41], the kinact/KI [5] is reported as 4160 M⁻¹ s⁻¹.
`CCC1(CC)C(=O)N(C(=O)NCc2ccc(C(=O)N3CCOCC3)cc2)C1Oc1ccc(C(=O)O)cc1` (stereo not shown) [Table III: O-(4-COOHPh); drawing 43] gave a kinact/KI [5] of 2040 M⁻¹ s⁻¹.
For `C=CCOC1N(C(=O)NCc2ccc(-c3ccccc3)cc2)C(=O)C1(CC)CC` (stereo not shown) [Table III: O-(allyl); CH2 Ph-4-Ph], the kinact/KI [5] was 12500 M⁻¹ s⁻¹.
With `CCC1(CC)C(=O)N(C(=O)NCc2ccccc2)C1OCC(O)CO` (stereo not shown) [Table III: O-glyceryl; CH2 Ph] the kinact/KI [5] was 818 M⁻¹ s⁻¹.

Source: patent US5229381A, “Substituted azetidinones as anti-inflammatory and antidegenerative agents” (Merck & Co., Inc., priority 1991, dated 1993)
